Where “and” joins values, the source holds several entries; their conditions need not be identical. Equal values may be shown once.
What was measured:
[1] = Stationary and time-resolved absorption and emission spectroscopy (photophysics); format: physicochemical
Source text: (§1) Details of the stationary and time-resolved absorption and emission spectroscopy procedures used for the mechanistic studies are given in Supplementary Section 3.3.

[2] = Photocatalytic conversion of diazirine, analysis via 19F NMR
Description: To an 8 ml crimp neck vial with a magnetic stirrer bar was added a solution of diazirine (100 µM, 10 µl of 10 mM DMSO stock) and photocatalyst (10 µM, 10 µl of 1 mM DMSO stock) in PBS (pH = 7.4, 1 ml). The vial was sealed and sparged with Ar for 10 min before being irradiated with 450 nm light (30 W LED; EvoluChem, PhotoRedOx Box) for 15 min. The solution was then spiked with p-(trifluoromethyl)benzoic acid as the internal standard (100 µM, chemical shift (δ) = −61.35 ppm) and analysed via ^19F NMR to determine the conversion of diazirine (δ = −64.23 ppm) to the carbinol product (δ = −76.64 ppm)[17]. Conversions are represented as the average of duplicate runs.

[3] = Phenyl azide S3 conversion via HPLC
Description: 3.2 Photocatalyst Screening
3.2.1 Phenyl azide conversion via HPLC
To an 8 mL crimp neck vial with magnetic stirrer bar was added a solution of phenyl azide S3 (1 mM, 10 µL of 100 mM DMSO stock) and photocatalyst (PC, 0.1 mM, 10 µL of 10 mM DMSO stock) in PBS pH = 7.4 (1 mL). The vial was sealed and sparged with Ar for 10 min before being irradiated with a 450 nm light (40W, EvoluChem, PhotoRedOx Box) for 15 min. […]
trifluoromethylbenzoic acid as the internal standard (1 mM) and analysed using analytical HPLC (see Section 2.5 for further details). Conversions were calculated using standard calibration curve of phenyl azide S3 vs. internal standard and are represented as the average of duplicate runs.
Calibration curve of phenyl azide S3 vs. internal standard
(also on this page, place not known: Normalised Intensity (Substrate/Standard))

[4] = Transient absorption of 4 with substrates (triplet energy / electron transfer); format: physicochemical; conditions: GSH 50 mM
Source text: as §1

[5] = system: reporter HEK293T cells expressing cytoplasmic HaloTag–SNAP-tag fusion protein; experiment: Modified chloroalkane penetration assay (CAPA), HEK293T; format: in vitro ADME; conditions: 1 h pulse, flow cytometry, Extended Data Fig. 6b, representative data of two biological replicates
Description: (§2) CA–TMR-d12 and BG–SiR-d12 were prepared as described previously. HeLa or HEK293T cells were seeded onto 10 cm cell culture dishes and allowed to attach for 24 h under standard cell culture maintenance conditions. The culture medium was replaced with fresh DMEM (5 ml, high glucose) with 10% FCS without antibiotics followed by plasmid (pcDNA5-HaloTag-Pro30-SNAP-tag) transfection using Lipofectamine 3000 (Thermo) according to Supplementary Section 2.8. After 24 h, the transfected cells were trypsinized, seeded into 24-well cell culture plates (1 × 10^5 cells per well) and incubated again for 24 h. […] Cell pellets were resuspended in PBS (400 µl) and analysed via flow cytometry (FACS Fortessa). The mean fluorescence intensity (MFI) values in the TMR and Cy5 (SiR) channels of live cells were determined. […] Equation (2) below was used to determine the percentage fluorescence intensity:2 Fluorescenceintensity%=(photocatalyst−chloroalkaneMFITMR)−(photocatalystMFITMR)/(CA−NHBocMFITMR)−(photocatalystMFITMR)×100.

[6] = system: reporter HeLa cells expressing cytoplasmic HaloTag–SNAP-tag fusion protein; experiment: Modified chloroalkane penetration assay (CAPA), HeLa; format: in vitro ADME; conditions: modified pulse-chase CAPA, 1 h pulse in FluoroBrite DMEM, chase CA–TMR-d12 15 min, BG–SiR-d12 1 µM for normalisation, flow cytometry, Fig. 4f, three biological replicates (mean ± SD)
Description: as §2

[7] = cited from earlier work
HeLa cells = experiment: Cell viability assay (WST-1); format: cell-based; conditions: WST-1, 24 h incubation, Extended Data Fig. 5a
[8] = PBS pH 7.4, diazirine 100 µM, photocatalyst 10 µM, 450 nm LED 15 min, average of duplicate runs
[9] = PBS pH 7.4, S3 1 mM, photocatalyst 0.1 mM, 450 nm 15 min, HPLC calibration curve, average of duplicate runs

In the case of diMeO-deazaflavin [S1], the λmax ([1]; Supplementary Fig. 4) is reported as 418 nm, the “Conversion of diazirine 1” value [2, 8] is reported as < 50% and 44% and the “Conversion of aryl azide S3” value [3, 9] is reported as 79%.
For `Cn1c2nc(=O)[nH]c(=O)c-2cc2ccccc21` [compound 4, deazaflavin], the “Conversion of diazirine 1” value ([2]; 1:1 DMSO/H2O, 450 nm 15 min) was 85% and the “Conversion of aryl azide S3” value [3, 9] was 100%.
In the case of `N[C@@H](CCC(=O)N[C@@H](CS)C(=O)NCC(=O)O)C(=O)O` [GSH, glutathione], the “Quantum yield of electron transfer ΦeT to triplet state of 4” value [4] is reported as 73%.
With `Cn1c2nc(=O)n(CC(=O)NCCOCCOCCCCCCCl)c(=O)c-2cc2ccccc21` [compound 15] the CP50 [5] was 2,063 nM and the “CP50 (treatment concentration where 50% of the HaloTags are labelled)” value [6] was 198 ± 79.2 nM.
In the case of Riboflavin tetraacetate [RTA], the “Conversion of aryl azide S3” value ([3]; pH 7.4) is reported as 69%.
In the case of MeO-thioxanthone [2b], the “Conversion of diazirine 1” value [2, 8] is reported as under 5% and the “Conversion of aryl azide S3” value [3, 9] is reported as 61%.
With `O=c1c2ccccc2sc2ccccc12` [2a, thioxanthone] the “λmax of first absorption band” value ([1]; Fig. 1a, footnote a (footnote text not shown; a = 1:1 DMSO/H2O in Supplementary Fig. 4)) was 385 nm, the λmax ([1]; Supplementary Fig. 4) was 387 nm and the “Conversion of diazirine 1” value [2, 8] was 71% and > 70%. For the same molecule, the “Conversion of aryl azide S3” value [3, 9] was 77% and the “Triplet energy (ET, E0–0,T1)” value [7] was 67.4 kcal/mol.
For `CC(C)(C)c1ccnc(-c2cc(C(C)(C)C)ccn2)c1.F[P-](F)(F)(F)(F)F.Fc1c[c-]c(-c2ccc(C(F)(F)F)cn2)c(F)c1.Fc1c[c-]c(-c2ccc(C(F)(F)F)cn2)c(F)c1.[Ir+3]` [3b, [Ir(dF(CF3)ppy)2(dtbbpy)]PF6], the λmax ([1]; Supplementary Fig. 4, 1:1 DMSO/H2O) is given as 380 nm, the “Singlet oxygen quantum yield ΦΔ” value ([1]; in acetonitrile) is given as 93% and the “Triplet energy (ET, E0–0,T1)” value [7] is given as 60.1 kcal/mol.
With diMeO-alloxazine [S2] the λmax ([1]; Supplementary Fig. 4) was 396 nm and the “Conversion of aryl azide S3” value [3, 9] was 94%.
With `O=C1OC2(c3ccccc31)c1cc(Br)c(O)c(Br)c1Oc1c2cc(Br)c(O)c1Br` [EY, eosin Y] the “Cytotoxicity (in words)” value (HeLa cells) was “do not induce cytotoxicity”.
In the case of Ir[dFCF3CO2Hppy]2[diolbpy] [3a], the λmax ([1]; Supplementary Fig. 4) is reported as 380 nm, the “Cytotoxicity (in words)” value (HeLa cells) is reported as “do not induce cytotoxicity” and the “Conversion of aryl azide S3” value [3, 9] is reported as 84%. The “Triplet energy (ET, E0–0,T1)” value [7] was 60.1 kcal/mol.
